Experimental data reported in paper PMC9953315, “Cytochrome P450 Surface Domains Prevent the β-Carotene Monohydroxylase CYP97H1 of Euglena gracilis from Acting as a Dihydroxylase” (Biomolecules, 2023).

Key:
Assay in all cases: in vivo carotenoid production in E. coli, HPLC-DAD and LC-MS
Type in all cases: cell-based
[1] = biological target: T1, tCYP97H1 (Euglena gracilis, UniProt A0A1Y1C5R9, F246A); conditions: beta-carotene producing E. coli, S. oleracea ferredoxin / ferredoxin reductase co-expressed; product beta-cryptoxanthin
T1 construct: gene CYP97H1; plastid signal M1-L116 deleted; E. coli codon optimised; expressed in beta-carotene producing E. coli with Spinacia oleracea ferredoxin / ferredoxin reductase

[2] = biological target: T2, tCYP97H1 (Euglena gracilis, UniProt A0A1Y1C5R9, F221A); conditions: beta-carotene producing E. coli, S. oleracea ferredoxin / ferredoxin reductase co-expressed; product beta-cryptoxanthin
T2 construct: gene CYP97H1; plastid signal M1-L116 deleted; E. coli codon optimised; expressed in beta-carotene producing E. coli with Spinacia oleracea ferredoxin / ferredoxin reductase

[3] = biological target: T3, tCYP97H1 (Euglena gracilis, UniProt A0A1Y1C5R9); conditions: beta-carotene producing E. coli, S. oleracea ferredoxin / ferredoxin reductase co-expressed, product beta-cryptoxanthin
T3 construct: gene CYP97H1; plastid signal M1-L116 deleted; E. coli codon optimised; expressed in beta-carotene producing E. coli with Spinacia oleracea ferredoxin / ferredoxin reductase

[4] = biological target: T4, tCYP97H1 (Euglena gracilis, UniProt A0A1Y1C5R9, F242A); conditions: beta-carotene producing E. coli, S. oleracea ferredoxin / ferredoxin reductase co-expressed; product beta-cryptoxanthin
T4 construct: gene CYP97H1; plastid signal M1-L116 deleted; E. coli codon optimised; expressed in beta-carotene producing E. coli with Spinacia oleracea ferredoxin / ferredoxin reductase

[5] = biological target: T5, tCYP97A3At (Arabidopsis thaliana, UniProt Q93VK5); conditions: beta-carotene producing E. coli, S. oleracea ferredoxin / ferredoxin reductase co-expressed, product beta-cryptoxanthin
T5 construct: gene CYP97A3; first 77 residues deleted, no MBP tag; expressed in beta-carotene producing E. coli with Spinacia oleracea ferredoxin / ferredoxin reductase
T5 sequence (Q93VK5 78-595): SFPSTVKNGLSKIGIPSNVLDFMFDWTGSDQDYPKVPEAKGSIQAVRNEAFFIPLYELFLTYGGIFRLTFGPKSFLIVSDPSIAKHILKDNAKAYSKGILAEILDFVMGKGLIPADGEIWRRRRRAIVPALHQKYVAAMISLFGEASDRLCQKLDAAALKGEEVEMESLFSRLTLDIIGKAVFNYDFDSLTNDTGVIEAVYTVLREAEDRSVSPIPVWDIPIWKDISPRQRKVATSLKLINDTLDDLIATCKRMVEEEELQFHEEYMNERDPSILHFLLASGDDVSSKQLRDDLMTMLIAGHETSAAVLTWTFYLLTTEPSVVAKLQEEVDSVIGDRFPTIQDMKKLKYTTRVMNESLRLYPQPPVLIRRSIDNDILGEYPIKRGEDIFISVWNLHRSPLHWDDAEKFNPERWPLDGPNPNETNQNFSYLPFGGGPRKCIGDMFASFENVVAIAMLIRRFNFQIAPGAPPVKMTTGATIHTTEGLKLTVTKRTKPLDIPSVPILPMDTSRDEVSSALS

[6] = biological target: T6, tCYP97H1 (Euglena gracilis, UniProt A0A1Y1C5R9, F218A); conditions: beta-carotene producing E. coli, S. oleracea ferredoxin / ferredoxin reductase co-expressed, product beta-cryptoxanthin
T6 construct: gene CYP97H1; plastid signal M1-L116 deleted; E. coli codon optimised; expressed in beta-carotene producing E. coli with Spinacia oleracea ferredoxin / ferredoxin reductase

[7] = beta-cryptoxanthin formed in situ, side product zeaxanthin

T3 sequence (A0A1Y1C5R9 entry or part of it): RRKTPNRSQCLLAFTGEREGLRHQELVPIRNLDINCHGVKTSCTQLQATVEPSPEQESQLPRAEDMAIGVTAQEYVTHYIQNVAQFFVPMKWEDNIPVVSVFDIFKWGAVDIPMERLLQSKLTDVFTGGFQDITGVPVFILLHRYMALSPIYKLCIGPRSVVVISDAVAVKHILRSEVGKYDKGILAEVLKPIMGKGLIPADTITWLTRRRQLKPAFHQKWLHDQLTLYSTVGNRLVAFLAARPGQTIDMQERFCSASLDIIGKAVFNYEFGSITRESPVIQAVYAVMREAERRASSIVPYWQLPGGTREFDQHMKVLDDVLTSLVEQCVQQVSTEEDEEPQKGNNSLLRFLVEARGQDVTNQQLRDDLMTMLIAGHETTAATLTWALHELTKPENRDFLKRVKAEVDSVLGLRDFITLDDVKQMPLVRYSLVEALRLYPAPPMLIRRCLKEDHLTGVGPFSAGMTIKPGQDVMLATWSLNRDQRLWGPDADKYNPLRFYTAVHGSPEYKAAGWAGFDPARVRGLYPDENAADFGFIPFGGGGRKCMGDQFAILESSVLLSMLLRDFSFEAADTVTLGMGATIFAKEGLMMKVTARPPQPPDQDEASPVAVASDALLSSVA
T6 sequence (A0A1Y1C5R9 entry or part of it F218A): as the sequence (A0A1Y1C5R9 entry or part of it) above, with F102A counted along it
T2 sequence (A0A1Y1C5R9 entry or part of it F221A): as the sequence (A0A1Y1C5R9 entry or part of it) above, with F105A counted along it
T1 sequence (A0A1Y1C5R9 entry or part of it F246A): as the sequence (A0A1Y1C5R9 entry or part of it) above, with F130A counted along it
T4 sequence (A0A1Y1C5R9 entry or part of it F242A): as the sequence (A0A1Y1C5R9 entry or part of it) above, with F126A counted along it

## CC1=C(/C=C/C(C)=C/C=C/C(C)=C/C=C/C=C(C)/C=C/C=C(C)/C=C/C2=C(C)CCCC2(C)C)C(C)(C)CCC1 [β-carotene]
[1]
  in vivo carotenoid production in E. coli, HPLC-DAD and LC-MS: All these single mutants exhibited reduced β-cryptoxanthin production
[2]
  in vivo carotenoid production in E. coli, HPLC-DAD and LC-MS: All these single mutants exhibited reduced β-cryptoxanthin production
[3]
  in vivo carotenoid production in E. coli, HPLC-DAD and LC-MS: the deletion of the plastid peptide signal from residue M1 to L116 improved activity
[4]
  in vivo carotenoid production in E. coli, HPLC-DAD and LC-MS: All these single mutants exhibited reduced β-cryptoxanthin production
[5]
  in vivo carotenoid production in E. coli, HPLC-DAD and LC-MS: production of a small amount of hydroxylated β-carotene in vivo
[6]
  in vivo carotenoid production in E. coli, HPLC-DAD and LC-MS: All these single mutants exhibited reduced β-cryptoxanthin production

## CC1=C(/C=C/C(C)=C/C=C/C(C)=C/C=C/C=C(C)/C=C/C=C(C)/C=C/C2=C(C)C[C@@H](O)CC2(C)C)C(C)(C)CCC1 [β-cryptoxanthin]
[3]; [7]
  in vivo carotenoid production in E. coli, HPLC-DAD and LC-MS: A small side production of zeaxanthin was detected with CYP97H1 and the F105A mutant
[5]; beta-cryptoxanthin formed in situ, product zeaxanthin
  in vivo carotenoid production in E. coli, HPLC-DAD and LC-MS: β-cryptoxanthin and zeaxanthin detection were confirmed by mass spectrometry in the strain ETL154, expressing CYP97A3
[6]; [7]
  in vivo carotenoid production in E. coli, HPLC-DAD and LC-MS: the zeaxanthin:β-cryptoxanthin ratio was displaced in favour of zeaxanthin
